From PMC10991509, “A phase I study of ATR inhibitor gartisertib (M4344) as a single agent and in combination with carboplatin in patients with advanced solid tumours” (British Journal of Cancer, 2024)
Read-outs that look alike come from different tables or passages of the source.

Columns and labels:
UGT1A1 [1] = target: T1, UGT1A1 (Homo sapiens, UniProt P22309); assay: UGT1A1 inhibition in human liver microsomes; type: in vitro ADME; settings: value (standard error)
T1 construct: from tissue; host or cells: human liver microsomes
T1 sequence (P22309 26-533): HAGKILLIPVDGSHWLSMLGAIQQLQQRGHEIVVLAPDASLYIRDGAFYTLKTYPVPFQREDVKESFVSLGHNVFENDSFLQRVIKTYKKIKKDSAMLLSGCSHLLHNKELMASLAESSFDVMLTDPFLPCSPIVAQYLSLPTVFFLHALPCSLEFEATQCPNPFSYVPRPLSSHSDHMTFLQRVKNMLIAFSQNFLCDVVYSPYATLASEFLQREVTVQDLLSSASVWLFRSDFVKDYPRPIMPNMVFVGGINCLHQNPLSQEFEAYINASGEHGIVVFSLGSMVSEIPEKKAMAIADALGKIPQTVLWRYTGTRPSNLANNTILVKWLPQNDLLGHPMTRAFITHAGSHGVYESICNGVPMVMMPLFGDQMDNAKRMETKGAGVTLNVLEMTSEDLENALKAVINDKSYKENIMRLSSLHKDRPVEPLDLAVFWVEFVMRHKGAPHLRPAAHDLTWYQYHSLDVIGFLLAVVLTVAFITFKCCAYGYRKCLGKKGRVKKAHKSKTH

UGT1A1 [2] = target: T2, UGT1A1 (Rattus norvegicus, UniProt Q64550); assay: UGT1A1 inhibition in rat liver microsomes; type: in vitro ADME; settings: value (standard error)
T2 construct: from tissue; host or cells: rat liver microsomes
T2 sequence (Q64550 30-535): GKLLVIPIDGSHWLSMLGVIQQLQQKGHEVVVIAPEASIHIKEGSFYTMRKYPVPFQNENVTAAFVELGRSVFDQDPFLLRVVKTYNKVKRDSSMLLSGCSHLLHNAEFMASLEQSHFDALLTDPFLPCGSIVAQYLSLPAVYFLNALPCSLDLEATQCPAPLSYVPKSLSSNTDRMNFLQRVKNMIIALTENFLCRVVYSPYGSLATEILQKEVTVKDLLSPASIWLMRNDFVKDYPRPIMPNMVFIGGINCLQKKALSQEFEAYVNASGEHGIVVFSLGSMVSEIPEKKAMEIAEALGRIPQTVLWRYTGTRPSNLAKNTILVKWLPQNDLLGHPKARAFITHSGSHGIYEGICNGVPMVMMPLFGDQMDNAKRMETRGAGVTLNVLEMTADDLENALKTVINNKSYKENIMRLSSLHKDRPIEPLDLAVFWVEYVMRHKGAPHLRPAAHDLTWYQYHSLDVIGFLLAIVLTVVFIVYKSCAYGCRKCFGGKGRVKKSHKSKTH

[3] = Plasma pharmacokinetics of gartisertib; type: in vivo, human; settings: for clearance: read-out: drug clearance
Text: The secondary objectives for cohorts A, A2, and B1 were to assess antitumour activity and PK. Endpoints associated with antitumour activity included confirmed best overall response (BOR), according to RECIST v1.1. PK endpoints included PK parameter estimates, derived from plasma concentration-time data. Please see the Supplementary Materials for details on further PK endpoints and assessments as well as the PK assessment schedule (Supplementary Table S2).
Categorical variables (such as incidence of a TEAE) were summarised using frequency counts and percentages, along with 2-sided exact Clopper–Pearson 95% confidence intervals (CIs). TEAEs observed were summarised by System Organ Class and Preferred Term according to the Medical Dictionary for Regulatory Activities (versions 23.0 and 24.0). Standard non-compartmental methods were used to determine PK parameters.
Blood samples were collected according to the Schedule of Assessments in order to measure gartisertib (and metabolites where appropriate) plasma concentrations. PK parameters included maximum observed plasma concentration (Cmax), time to reach maximum observed plasma concentration (Tmax), terminal half-life, area under the concentration–time curve (AUC) from time zero extrapolated to infinity, apparent oral clearance, and apparent volume of distribution during the terminal phase as well as Cmax and AUC accumulation ratios. Please see Table S2 for the PK assessment schedule.

[4] = test system: variant allele frequency of somatic alterations in ctDNA; assay: Molecular response: variant allele frequency in ctDNA; type: in vivo, human; settings: for patients with reduced variant allele frequency of the selected biomarkers: cohort C, 250 mg QD
Text: Exploratory objectives were to assess ATR inhibition and DNA damage by measuring phosphorylation of the Ser-139 residue of the histone variant H2AX (ɣ-H2AX) post-treatment in peripheral blood mononuclear cells (cohorts A2 and C), describe the mutational landscape and its relationship to BOR in patients with selected biomarkers (cohort C) and to determine changes in allele frequencies in mutations of interest and their association with clinical benefit (molecular response; cohorts A2 and C). Further details on the definitions of LOF mutations and methods of biomarker collection are described in the Supplementary Materials.
Use of ATRX/DAXX mutations as proxies for ALT-positive tumors enabled use of a single next-generation sequencing test for all biomarkers in this study. Loss of function mutations were defined as loss of the gene locus, a mutation defined as pathogenic in the ClinVar database or a mutation in one of the following categories: splice_acceptor_variant, splice_donor_variant, stop_gained, frameshift_variant, stop_lost or start_lost. Archival formalin-fixed paraffin-embedded tumor biopsies and serial blood samples collected in two 10 mL Streck tubes (Streck) were analyzed for the presence of genetic alterations in tumor DNA and circulating tumor DNA (ctDNA) with the FoundationOne® CDx NGS assay (Foundation Medicine, Cambridge, Massachusetts, US, FoundationOne®CDx Technical Information. https://www.accessdata.fda.gov/cdrh_docs/pdf17/P170019S006C.pdf) and Guardant Health OMNI assay (Guardant, Palo Alto, CA, US. Technical Information https://www.accessdata.fda.gov/cdrh_docs/pdf20/P200010C.pdf), respectively.
Molecular responses were measured in ctDNA as best-on-treatment change in variant allele frequency of somatic alterations with baseline value ≥0.3%.

In the case of Nc1nn2cc(F)cnc2c1C(=O)Nc1cncc(F)c1N1CCC(C(=O)N2CCN(C3COC3)CC2)CC1 [gartisertib, Gartisertib], the IC50 (UGT1A1 [1]) is reported as 8.36 µM, the IC50 (UGT1A1 [2]) is reported as over 50 µM and the “accumulation following multiple gartisertib doses” value ([3]; cohort A) is reported as “less than 2 fold”. The “urinary excretion of gartisertib” value ([3]; cohort A2) was “minor route of elimination”, the “time median plasma concentrations remained above the lower limit of quantification (1.00 ng/mL)” value ([3]; cohort A2, 250 mg dose) was at most 24 h and the “time median plasma concentrations remained above the lower limit of quantification (1.00 ng/mL)” value ([3]; cohort A2, doses other than 250 mg) was “up to 8 hours”. For the same compound, the “accumulation compared with day 1” value ([3]; cohort A, 450 mg dose) was “no accumulation”, the “accumulation of AUC0-t at day 8 compared with day 1” value ([3]; cohort A, 1200 mg dose group) was 1.9 fold and the “accumulation of Cmax at day 8 compared with day 1” value ([3]; cohort A, 1200 mg dose group) was 1.6 fold. For the same compound, the “time of peak median plasma gartisertib concentration” value ([3]; cohort A, 1200 mg group) was 4 hours post dose, the “time median gartisertib concentrations remained above the lowest level of quantification (1.00 ng/mL)” value ([3]; cohort A, 450, 700, 1050 and 1200 mg groups) was “up to 24 hours post dose” and the “exposure (Cmax and AUC) versus dose” value ([3]; cohorts A, A2, and B1, high variability) was “dose-proportional exposure”. The clearance ([3]; human, plasma, oral, cohort A2, day 1) was 3450 to 8580 mL/min, the clearance ([3]; human, plasma, oral, cohort A2, day 8) was 3980 to 7070 mL/min and the half-life ([3]; human, plasma, oral, cohorts A, A2, and B1, read-out: half-life (t1/2)) was 2 to 5 h. The half-life ([3]; human, plasma, oral, cohort A, four highest dose levels, read-out: geometric mean terminal half-life) was 2.22 to 4.61 h, the Vd ([3]; human, plasma, oral, cohort A, four highest dose levels, read-out: volume of distribution based on the terminal elimination phase following extravascular administration) was 1480 to 4060 L and the “patients with TP53-reduced variant allele frequency” value ([4]; cohort A2, 100 mg BID) was 0/2. For the same compound, the “patients with TP53-reduced variant allele frequency” value ([4]; cohort A2, 150 mg QD) was 1/2, the “patients with TP53-reduced variant allele frequency” value ([4]; cohort A2, 250 mg QD (RP2D)) was “all six” and the “patients with TP53-reduced variant allele frequency” value ([4]; cohort A2, 350 mg QD) was 0/4. The “patients with TP53-reduced variant allele frequency” value ([4]; cohort A2, patients achieving SD as best response) was 4/5, the “patients with TP53-reduced variant allele frequency” value ([4]; cohort A2, patients with PD) was 2/6 and the “patients with reduced variant allele frequency of the selected biomarkers” value ([4]; SD as best response) was “all four”. For the same compound, the “patients with reduced variant allele frequency of the selected biomarkers” value ([4]; patients with PD) was 2/5.
